The values below come from patent US9682995B2, “Amino-substituted isothiazoles” (BAYER PHARMA AKTIENGESELLSCHAFT, priority 2013, dated 2017).

Assay [1] concerns spindle assembly checkpoint. In words: SAC-Formation - Paclitaxel-Induced Assay. The class given is cell-based. As to conditions: Homo sapiens; HeLa cells, paclitaxel 0.05 μM, 24 h, phosphorylated histone H3 on serine 10. The essentials:
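HeLa cells were plated overnight, then given paclitaxel (0.05 μM final) plus compound (0.005-20 μM, 0.5% DMSO) for 24 h at 37° C. Fixed cells were stained for phospho-histone H3 Ser10 and with Hoechst, then imaged to give mitotic index. A fall in mitotic cells marks SAC breakthrough, and values were fit with a four-parameter Hill equation.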

Assay [2] concerns the target human Bub1 (Homo sapiens (Human), UniProt O43683). In words: Bub1 kinase assay (TR-FRET). The class given is biochemical. Conditions: 10 μM ATP; read-out: Bub1 avg (IC50 [mol/l]). A digest of the protocol:
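His6-tagged human Bub1 catalytic domain (aa 704-1085, insect-cell expressed, ~200 ng/ml) preincubated with compound 15 min, then reacted 60 min at 22 °C with 10 μM ATP and 1 μM biotinylated peptide (final) in pH 7.5 Tris buffer. Phosphopeptide detected by TR-FRET 665/620 ratio, normalised to no-inhibitor and no-enzyme controls.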
A general note: TR-FRET usually uses a lanthanide donor and a delayed reading to cut background.

Chain of human Bub1 (O43683 704-1085): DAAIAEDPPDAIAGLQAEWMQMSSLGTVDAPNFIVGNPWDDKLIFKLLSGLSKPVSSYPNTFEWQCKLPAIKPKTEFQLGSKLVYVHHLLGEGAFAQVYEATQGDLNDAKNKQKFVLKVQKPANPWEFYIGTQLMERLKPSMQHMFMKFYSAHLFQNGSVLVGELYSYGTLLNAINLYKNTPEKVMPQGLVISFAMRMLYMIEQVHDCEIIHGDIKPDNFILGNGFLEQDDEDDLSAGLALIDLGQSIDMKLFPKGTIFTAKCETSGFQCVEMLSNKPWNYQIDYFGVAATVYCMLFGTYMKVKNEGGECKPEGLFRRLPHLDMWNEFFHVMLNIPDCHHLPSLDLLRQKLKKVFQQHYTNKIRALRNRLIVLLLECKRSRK

Regarding `CCc1ccccc1NC(=O)c1c(C)nsc1Nc1cnc2cc(F)ccc2n1` [Example 20, N-(2-Ethylphenyl)-5-[(6-fluoroquinoxalin-2-yl)amino]-3-methyl-1,2-thiazole-4-carboxamide], the IC50 in assay [1] was 0.4 µM; in assay [2] it was more than 20 µM.
The matching figures for `CCc1ccccc1NC(=O)c1c(C)nsc1Nc1nc(C)nc2ccccc12` [Example 35, N-(2-Ethylphenyl)-3-methyl-5-[(2-methylquinazolin-4-yl)amino]-1,2-thiazole-4-carboxamide]: 4.6 µM and more than 20 µM.
The matching figures for `Cc1nsc(Nc2cc(C#N)ccn2)c1C(=O)Nc1ccc(F)c(F)c1` [Example 27, 5-[(4-Cyanopyridin-2-yl)amino]-N-(3,4-difluorophenyl)-3-methyl-1,2-thiazole-4-carboxamide]: 0.17 µM and more than 20 µM.
For `CCc1ccccc1NC(=O)c1c(C)nsc1Nc1nc2ccccc2s1` [Example 14, 5-(1,3-Benzothiazol-2-ylamino)-N-(2-ethylphenyl)-3-methyl-1,2-thiazole-4-carboxamide], in that order: 0.76 µM and 8.59 µM.
Consider `Cc1nsc(Nc2cnc3ccccc3n2)c1C(=O)Nc1ccc(F)c(F)c1` [Example 50, N-(3,4-Difluorophenyl)-3-methyl-5-(quinoxalin-2-ylamino)-1,2-thiazole-4-carboxamide], for which the IC50 is 0.028 µM in assay [1] and more than 20 µM in assay [2].
As to `CCc1ccccc1NC(=O)c1c(C)nsc1Nc1cnc2ccccc2n1` [Example 19, N-(2-Ethylphenyl)-3-methyl-5-(quinoxalin-2-ylamino)-1,2-thiazole-4-carboxamide], the IC50 is 0.14 µM in assay [1] and more than 20 µM in assay [2].
The matching figures for `CCc1ccccc1NC(=O)c1c(C)nsc1Nc1ncccc1C#N` [Example 8, 5-[(3-Cyanopyridin-2-yl)amino]-N-(2-ethylphenyl)-3-methyl-1,2-thiazole-4-carboxamide]: 18 µM and more than 20 µM.
The matching figures for `CCc1ccccc1NC(=O)c1c(C)nsc1Nc1cnc2ccc(Cl)cc2n1` [Example 41, 5-[(7-Chloroquinoxalin-2-yl)amino]-N-(2-ethylphenyl)-3-methyl-1,2-thiazole-4-carboxamide]: 0.81 µM and more than 20 µM.
For `CCOC(=O)c1sc(Nc2snc(C)c2C(=O)Nc2ccccc2CC)nc1C` [Example 26, Ethyl 2-({4-[(2-ethylphenyl)carbamoyl]-3-methyl-1,2-thiazol-5-yl}amino)-4-methyl-1,3-thiazole-5-carboxylate], in that order: 0.25 µM and more than 20 µM.
As for `CCc1ccccc1NC(=O)c1c(C)nsc1Nc1nc2ccccc2nc1C` [Example 21, N-(2-Ethylphenyl)-3-methyl-5-[(3-methylquinoxalin-2-yl)amino]-1,2-thiazole-4-carboxamide], the IC50 in assay [1] was 3.6 µM; in assay [2], more than 20 µM.
As for `CNC(=O)c1ccnc(Nc2snc(C)c2C(=O)Nc2ccc(F)c(F)c2)c1` [Example 108, 2-({4-[(3,4-Difluorophenyl)-carbamoyl]-3-methyl-1,2-thiazol-5-yl}amino)-N-methyliso-nicotinamide], the figures for the IC50 in assay [1] and in assay [2] were 20 µM and more than 20 µM, respectively.
For `Cc1nsc(Nc2cnc3ccccc3n2)c1C(=O)Nc1ccc(Oc2ccc(F)cc2F)nc1` [Example 113, N-[6-(2,4-Difluorophenoxy)pyridin-3-yl]-3-methyl-5-(quinoxalin-2-ylamino)-1,2-thiazole-4-carboxamide], in that order: 1 µM and more than 20 µM.
Consider `COC(=O)c1cncc(Nc2snc(C)c2C(=O)Nc2ccc(OC)nc2)n1` [Example 101, Methyl 6-({4-[(6-methoxypyridin-3-yl)carbamoyl]-3-methyl-1,2-thiazol-5-yl}amino)pyrazine-2-carboxylate], for which the IC50 is 1.5 µM in assay [1] and more than 20 µM in assay [2].
